Test results reported in ChEMBL document CHEMBL4346748, “Growth inhibition by 1-deoxy-d-allulose, a novel bioactive deoxy sugar, screened using Caenorhabditis elegans assay” (Bioorg Med Chem Lett, 2019).
Activity calls are given as the source filed them. The rule behind the calls is not given here.

Experiments:
[1] = system: Caenorhabditis elegans; assay: Ratio of GI50 for D-Alu to GI50 for test compound for growth inhibition of Caenorhabditis elegans N2 assessed as reduction in body size incubated for 72 hrs by microscopic method; type: functional
[2] = system: Caenorhabditis elegans; assay: Growth inhibition of Caenorhabditis elegans N2 assessed as reduction in body size incubated for 72 hrs by microscopic method; type: functional; conditions: for GI50: N2, 72 h
[3] = system: Caenorhabditis elegans; assay: Growth inhibition of Caenorhabditis elegans N2 assessed as body size at 42 mM incubated for 72 hrs by microscopic method relative to control; type: functional; design: scale not given: the % may be the effect or the level left
[4] = system: Caenorhabditis elegans; assay: Growth inhibition of Caenorhabditis elegans N2 assessed as reduction in motility at 42 mM incubated for 72 hrs by microscopic method; type: functional, organism-based
[5] = Toxicity in Caenorhabditis elegans N2 assessed as mortality at 42 mM incubated for 72 hrs by microscopic method; conditions: 42000 µM
[6] = system: Caenorhabditis elegans; assay: Growth inhibition of Caenorhabditis elegans N2 assessed as reduction in body size at 9.5 mM incubated for 72 hrs in presence of D-ribose by microscopic method; type: functional, organism-based
[7] = system: Caenorhabditis elegans; assay: Growth inhibition of Caenorhabditis elegans N2 assessed as reduction in body size at 9.5 mM incubated for 72 hrs in presence of up to 67 mM D-glucose by microscopic method; type: functional, organism-based
[8] = system: Caenorhabditis elegans; assay: Growth inhibition of Caenorhabditis elegans N2 assessed as reduction in body size at 9.5 mM incubated for 72 hrs in presence of D-fructose by microscopic method; type: functional, organism-based
[9] = system: Caenorhabditis elegans; assay: Growth inhibition of Caenorhabditis elegans N2 assessed as effect on body size at 42 mM incubated for 72 hrs by microscopic method; type: functional, organism-based
[10] = system: Caenorhabditis elegans; assay: Growth inhibition of Caenorhabditis elegans N2 assessed as effect on body shape at 42 mM incubated for 72 hrs by microscopic method; type: functional, organism-based

In the case of `CC(=O)[C@H](O)[C@H](O)[C@H](O)CO`, the RatioGI50 [1] was 10, the “growth inhibition (GI)” value [2] was “Dose-dependent effect” and the GI50 [2] was 5.4 mM. For the same molecule, the Activity [3] was 5.7%, the “growth inhibition (GI)” value [4] was “Active” and the Activity [5] was “Non-Toxic”. For the same molecule, the “growth inhibition (GI)” value [6] was “inactive”, the “growth inhibition (GI)” value [7] was “Active” and the “growth inhibition (GI)” value [8] was “inactive”. For the same molecule, the “growth inhibition (GI)” value [9] was “Active” and the “growth inhibition (GI)” value [10] was “Active”.
For `O=C(CO)[C@H](O)[C@H](O)CCO`, the “growth inhibition (GI)” value [3] was “inactive”.
For `C[C@@H](O)[C@@H](O)[C@@H](O)C(=O)CO`, the “growth inhibition (GI)” value [3] was “inactive”.
In the case of `CC(=O)[C@@H](O)[C@@H](O)[C@@H](O)CO`, the “growth inhibition (GI)” value [3] was “inactive”.
In the case of `CC(=O)[C@@H](O)[C@H](O)[C@@H](O)CO`, the “growth inhibition (GI)” value [3] was “inactive”.
For `O=C(CO)[C@H](O)[C@H](O)[C@H](O)CO`, the GI50 [2] was 52.7 mM.
For `CC(=O)[C@H](O)[C@@H](O)[C@@H](O)CO`, the “growth inhibition (GI)” value [3] was “inactive”.
For `CC(=O)[C@H](O)[C@H](O)[C@@H](O)CO`, the “growth inhibition (GI)” value [3] was “inactive”.
With `CC(=O)[C@H](O)[C@@H](O)[C@H](O)CO` the “growth inhibition (GI)” value [3] was “inactive”.
For `CC(=O)[C@@H](O)[C@H](O)[C@H](O)CO`, the “growth inhibition (GI)” value [3] was “inactive”.
With `CC(=O)[C@@H](O)[C@@H](O)[C@H](O)CO` the “growth inhibition (GI)” value [3] was “inactive”.
